Data taken from patent US11572590B2, “Methods for evaluating tumor cell spheroids using 3D microfluidic cell culture device” (Dana-Farber Cancer Institute, Inc., priority 2017, dated 2023).
Where two headings read alike, the source gives them in different places.

Columns and labels:
Experiment in all cases: SelectScreen Kinase Profiling, single point inhibition and IC50 for off-target kinases
Assay type in all cases: biochemical
[1] = target: T1, off-target kinases (Homo sapiens, UniProt P29320); settings: EPHA3, LanthaScreen Binding
T1 sequence (P29320 21-983): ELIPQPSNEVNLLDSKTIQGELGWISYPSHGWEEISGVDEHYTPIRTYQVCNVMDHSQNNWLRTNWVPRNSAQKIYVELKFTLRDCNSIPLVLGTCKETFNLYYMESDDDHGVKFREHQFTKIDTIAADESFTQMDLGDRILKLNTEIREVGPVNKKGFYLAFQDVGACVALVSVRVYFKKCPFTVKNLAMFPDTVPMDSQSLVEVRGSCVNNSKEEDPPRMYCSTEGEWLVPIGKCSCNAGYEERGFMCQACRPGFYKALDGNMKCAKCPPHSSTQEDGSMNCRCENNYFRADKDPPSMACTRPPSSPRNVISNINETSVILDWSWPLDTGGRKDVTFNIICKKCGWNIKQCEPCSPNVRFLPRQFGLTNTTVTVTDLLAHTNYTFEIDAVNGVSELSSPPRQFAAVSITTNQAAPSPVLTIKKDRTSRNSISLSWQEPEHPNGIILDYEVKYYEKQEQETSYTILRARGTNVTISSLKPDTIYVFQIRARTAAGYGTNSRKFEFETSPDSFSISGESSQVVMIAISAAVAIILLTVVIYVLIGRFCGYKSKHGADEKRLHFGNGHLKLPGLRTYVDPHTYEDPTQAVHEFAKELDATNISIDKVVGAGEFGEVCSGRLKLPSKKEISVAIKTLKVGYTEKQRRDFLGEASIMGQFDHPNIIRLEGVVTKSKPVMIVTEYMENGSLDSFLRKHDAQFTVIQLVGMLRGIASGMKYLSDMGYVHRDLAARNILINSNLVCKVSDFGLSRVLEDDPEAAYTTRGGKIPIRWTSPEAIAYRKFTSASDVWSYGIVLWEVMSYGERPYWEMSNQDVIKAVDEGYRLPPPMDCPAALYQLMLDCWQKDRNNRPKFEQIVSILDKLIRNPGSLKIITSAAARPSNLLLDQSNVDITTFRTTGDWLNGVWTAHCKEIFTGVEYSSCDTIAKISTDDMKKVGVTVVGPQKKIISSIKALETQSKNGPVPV

[2] = target: off-target kinases (Homo sapiens, UniProt P16591); settings: FER, ZLYTE, ATP Km app
off-target kinases (Homo sapiens, UniProt P16591), sequence (P16591 whole entry): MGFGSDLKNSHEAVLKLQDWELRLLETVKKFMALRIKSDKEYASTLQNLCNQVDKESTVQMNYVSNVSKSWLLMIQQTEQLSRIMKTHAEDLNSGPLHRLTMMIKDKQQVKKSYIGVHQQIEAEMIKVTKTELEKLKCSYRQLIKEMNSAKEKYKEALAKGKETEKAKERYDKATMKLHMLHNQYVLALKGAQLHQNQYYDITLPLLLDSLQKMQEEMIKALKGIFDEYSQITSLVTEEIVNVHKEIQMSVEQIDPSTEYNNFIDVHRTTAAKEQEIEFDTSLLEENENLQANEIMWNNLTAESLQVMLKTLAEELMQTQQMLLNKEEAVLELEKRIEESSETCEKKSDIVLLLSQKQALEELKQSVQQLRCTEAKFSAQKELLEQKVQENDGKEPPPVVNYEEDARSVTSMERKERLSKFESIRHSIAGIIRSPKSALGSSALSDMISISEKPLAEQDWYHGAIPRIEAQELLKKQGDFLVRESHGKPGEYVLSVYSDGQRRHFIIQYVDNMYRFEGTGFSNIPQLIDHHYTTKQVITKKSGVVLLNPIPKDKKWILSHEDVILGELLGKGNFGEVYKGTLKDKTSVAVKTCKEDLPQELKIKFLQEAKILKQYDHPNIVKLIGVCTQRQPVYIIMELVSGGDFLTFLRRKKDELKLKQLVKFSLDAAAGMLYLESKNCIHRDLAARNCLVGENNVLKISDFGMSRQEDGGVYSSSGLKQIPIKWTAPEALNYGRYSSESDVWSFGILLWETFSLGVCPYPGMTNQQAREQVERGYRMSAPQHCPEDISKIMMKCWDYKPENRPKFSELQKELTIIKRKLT

[3] = target: off-target kinases (Homo sapiens, UniProt P00533); settings: EGFR (ErbB1), ZLYTE, ATP Km app
off-target kinases (Homo sapiens, UniProt P00533), sequence (P00533 25-1210): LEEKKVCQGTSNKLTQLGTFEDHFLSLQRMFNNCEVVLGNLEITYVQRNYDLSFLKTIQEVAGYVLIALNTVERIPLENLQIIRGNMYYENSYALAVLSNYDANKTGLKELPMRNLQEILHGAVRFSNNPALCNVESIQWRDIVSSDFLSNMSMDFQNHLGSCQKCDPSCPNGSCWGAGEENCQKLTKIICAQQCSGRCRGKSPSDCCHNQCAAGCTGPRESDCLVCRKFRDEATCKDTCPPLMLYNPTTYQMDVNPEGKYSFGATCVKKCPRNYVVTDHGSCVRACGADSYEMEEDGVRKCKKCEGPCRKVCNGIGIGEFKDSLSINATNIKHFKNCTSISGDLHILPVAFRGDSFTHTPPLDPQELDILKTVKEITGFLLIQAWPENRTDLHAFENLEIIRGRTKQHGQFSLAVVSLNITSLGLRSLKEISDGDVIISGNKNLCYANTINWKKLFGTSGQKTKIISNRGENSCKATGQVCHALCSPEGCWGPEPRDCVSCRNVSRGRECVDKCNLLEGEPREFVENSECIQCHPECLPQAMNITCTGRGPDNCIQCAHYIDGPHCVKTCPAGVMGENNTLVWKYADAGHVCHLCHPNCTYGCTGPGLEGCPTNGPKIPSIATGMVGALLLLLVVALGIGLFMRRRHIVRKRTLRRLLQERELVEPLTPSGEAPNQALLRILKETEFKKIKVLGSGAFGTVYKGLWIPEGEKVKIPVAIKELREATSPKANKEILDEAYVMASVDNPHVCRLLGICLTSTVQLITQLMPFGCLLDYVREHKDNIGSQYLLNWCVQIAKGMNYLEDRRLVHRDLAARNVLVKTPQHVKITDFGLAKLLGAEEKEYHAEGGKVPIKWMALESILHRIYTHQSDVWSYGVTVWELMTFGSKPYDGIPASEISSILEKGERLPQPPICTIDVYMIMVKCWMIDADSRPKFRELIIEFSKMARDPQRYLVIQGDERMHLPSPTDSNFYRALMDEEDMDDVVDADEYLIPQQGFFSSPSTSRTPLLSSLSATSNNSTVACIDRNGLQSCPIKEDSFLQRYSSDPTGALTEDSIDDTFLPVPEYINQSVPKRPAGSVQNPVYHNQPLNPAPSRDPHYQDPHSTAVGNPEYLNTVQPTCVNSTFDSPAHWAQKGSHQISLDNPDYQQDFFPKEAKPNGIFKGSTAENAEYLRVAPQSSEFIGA

[4] = target: off-target kinases (Homo sapiens, UniProt P37173); settings: TGFBR2, LanthaScreen Binding
off-target kinases (Homo sapiens, UniProt P37173), sequence (P37173 23-567): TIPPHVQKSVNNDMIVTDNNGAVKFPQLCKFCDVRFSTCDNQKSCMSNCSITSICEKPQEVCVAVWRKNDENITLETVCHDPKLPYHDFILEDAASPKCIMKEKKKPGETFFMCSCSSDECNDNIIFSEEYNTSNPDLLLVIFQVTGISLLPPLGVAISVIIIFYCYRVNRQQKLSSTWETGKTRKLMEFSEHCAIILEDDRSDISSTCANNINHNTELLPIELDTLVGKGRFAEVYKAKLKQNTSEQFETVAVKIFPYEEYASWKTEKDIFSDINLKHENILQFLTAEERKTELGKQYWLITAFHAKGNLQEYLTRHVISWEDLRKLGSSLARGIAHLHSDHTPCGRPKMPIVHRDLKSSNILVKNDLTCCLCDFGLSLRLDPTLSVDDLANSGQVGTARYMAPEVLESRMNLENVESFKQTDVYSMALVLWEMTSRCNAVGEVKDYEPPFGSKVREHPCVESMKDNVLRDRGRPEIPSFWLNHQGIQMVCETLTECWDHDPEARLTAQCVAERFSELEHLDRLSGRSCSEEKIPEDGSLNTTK

[5] = target: T2, off-target kinases (Homo sapiens, UniProt O14757); settings: CHEK1 (CHK1), ATP Km app, ZLYTE
T2 sequence (O14757 1-476): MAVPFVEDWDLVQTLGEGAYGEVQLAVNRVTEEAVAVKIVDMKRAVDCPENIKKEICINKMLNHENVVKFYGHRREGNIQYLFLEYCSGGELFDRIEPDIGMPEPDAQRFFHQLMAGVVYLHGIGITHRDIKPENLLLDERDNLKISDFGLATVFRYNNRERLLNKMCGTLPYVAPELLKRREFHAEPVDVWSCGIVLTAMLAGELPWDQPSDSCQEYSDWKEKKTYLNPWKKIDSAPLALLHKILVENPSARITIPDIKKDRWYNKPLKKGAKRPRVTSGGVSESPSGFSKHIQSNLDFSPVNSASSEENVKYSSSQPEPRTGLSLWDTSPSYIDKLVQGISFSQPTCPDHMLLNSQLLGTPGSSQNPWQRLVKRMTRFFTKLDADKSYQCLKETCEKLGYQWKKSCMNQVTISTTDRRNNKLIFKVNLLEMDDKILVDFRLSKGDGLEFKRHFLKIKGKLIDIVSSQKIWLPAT

With `N#Cc1cc(-c2ncnc(Nc3ccc(N4CCN(C5COC5)CC4)cc3)n2)ccc1OC1CCOCC1` [Compound 1, 5-(4-((4-(4-(oxetan-3-yl)piperazin-1-yl)phenyl)amino)-1,3,5-triazin-2-yl)-2-((tetrahydro-2H-pyran-4-yl)oxy)benzonitrile] the inhibition ([1]; read-out: % Inhibition 1) was 6%, the inhibition ([1]; read-out: % Inhibition 2) was 3% and the inhibition ([1]; read-out: % Inhibition Avg) was 4%. It also gave an inhibition ([2]; read-out: % Inhibition 1) of 4%, an inhibition ([2]; read-out: % Inhibition 2) of 9% and an inhibition ([2]; read-out: % Inhibition Avg) of 7%. For the same compound, the inhibition ([3]; read-out: % Inhibition 1) was 10%, the inhibition ([3]; read-out: % Inhibition 2) was 9% and the inhibition ([3]; read-out: % Inhibition Avg) was 9%. For the same compound, the inhibition ([4]; read-out: % Inhibition 1) was 92%, the inhibition ([4]; read-out: % Inhibition 2) was 95% and the inhibition ([4]; read-out: % Inhibition Avg) was 93%. The inhibition ([5]; read-out: % Inhibition 1) was 78%, the inhibition ([5]; read-out: % Inhibition 2) was 78% and the inhibition ([5]; read-out: % Inhibition Avg) was 78%.
